The values below come from patent US20160262390A1, “FIELD APPLICATION OF SUGARS TO INCREASE CROP YIELD” (Minn-Dak Farmers Cooperative, priority 2015, published 2016).

The experiment has as its system soybeans. Briefly: Soybean field trial, Wilkin County, Minnesota (NKS06-H5 seed). Format: in vivo. On the procedure: To test the efficacy of using a sugar based fertilizer composition with soybeans, field trials using Northrup-King NKS06-H5 soybean seed were conducted in Wilkin County, Minnesota. A total of six (6) treatments were conducted. Each treatment was replicated four times arranged in a Randomized Complete Block (RCB) Design in the same field. Each replication consisted of a plot having a width of six (6) rows with twenty two (22) inch row spacing having a row length of twenty five (25) feet. To reduce/eliminate any treatment impacts between adjacent plots, only the four (4) interior rows of each plot were treated and evaluated. With the exception of the treatment program applied to the individual plots, which will be discussed below, conventional commercial growing practices were otherwise followed during the field trials. The individual plots experienced the same growing conditions throughout the season.
The treatment regimen for the soybeans included one (1) untreated treatment in which no sugar was applied and was used as the control element. One (1) treatment included treatment with Sun Energy Foliar Fertilizer (SE). […] SE was supplied in liquid form and applied by spraying while GS was supplied in a conventional solid form and applied via broadcast spreading. SE is for foliar application and was applied according to the labeling instructions on post-emergent (Post) soybean plants at both the Vegetative Fourth Trifoliolate (V4) and Reproductive Beginning Flowering (R1) stages. GS was applied at a variety of times, both pre-planting (Pre) and on post-emergent (Post) soybean plants at either or the V4 or R1 stages. When applied during pre-planting (Pre), the GS was spread directly on the soil before spring tillage, lightly worked into the ground and followed by planting of the soybean seed into the treated ground. A summary of the plot treatments is contained in Table 4 below:
Following a conventional growing season, the middle four rows of each plot were harvested and data collected for overall yield (bushels of soybeans/Acre), protein dry basis (%) and oil dry basis (%). Fisher's Exact LSD was the statistical test of choice for mean separation for the individual plots of each treatment. A summary of the soybean harvest data is contained in Table 5 below: […]

Setting [1] is: Replication 3: 100 pounds/Acre Pre + 3 pounds/Acre Post (V4).
Setting [2] is: Replication 4: 3 pounds/Acre Post (R1).
The mark [3] stands for this setting: Replication 5: 5 pounds/Acre Post (R1).
Where [4] appears, read: Replication 6: 100 pounds/Acre Pre + 5 pounds/Acre Post (V4).

Turning to `OC[C@H]1O[C@@](CO)(O[C@H]2O[C@H](CO)[C@@H](O)[C@H](O)[C@H]2O)[C@@H](O)[C@@H]1O` [GS, sucrose], the “side-by-side visual comparison of soybean plants with untreated check” value (GS 100 pounds/acre prior to planting, 40 and 60 days after planting (FIGS. 7-9)) is “larger more robust soybean plants”. The “Bushels of Soybeans/Acre” value was 52.92 bushels/Acre under setting [1], 35.56 bushels/Acre under setting [2], 40.14 bushels/Acre under setting [3] and 45.28 bushels/Acre under setting [4]. The “Yield Increase (Treatment Bushels of Soybeans/Acre)/(Check Bushels of Soybeans/Acre)” value by setting is: under setting [1], 31.84%; under setting [2], −11.41%; under setting [3], 0.00%; under setting [4], 12.81%. The “yield increase as compared to the untreated check” value (every pre-planting (Pre) application of GS) was “at least 12.8%”. Besides, the yield data entry (only post-emergent application of GS) is on record as “inconclusive”.
